Test results taken from patent US8440424B2, “Identification of antibiotic resistance using labelled antibiotics” (miacom Diagnostics GmbH, priority 2008, dated 2013).
Like-named read-outs stand apart in the source and are kept apart here.

Experiments:
[1] = test system: High level Aminoglycoside Resistance in Enterococci (HLAR); assay: Binding of fluorescent labelled antibiotic, resistant vs non-resistant form: HLAR; details: reduction in Streptomycin binding; HLAR Enterococci relative to non-resistant form; fluorescent label
Protocol: (§1) An in-situ hybridisation protocol may be applied as laid down in patent application EP 06 021 267.7, which is incorporated herein by reference. The incubation with a labelled antibiotic may be performed at temperatures below the Tm of the hybridised probe. In a preferred embodiment the temperature is between about 25 and about 65° C., in a more preferred embodiment the temperature is between about 35° C. and about 59° C. In an even more preferred embodiment, the temperature is at about 52° C. The incubation time is preferably between about 1 and about 30 minutes. In a more preferred embodiment the incubation is made for about 15 minutes. After the incubation the slide may be submerged in 50% ethanol followed by a bath in pure ethanol. Both steps may be run for between about 1 and about 10 minutes. The preferred length of incubation is between about 2 and about 6 minutes. It is more preferred to incubate about 4 minutes. […]
(§2) An antibiotic resistance, such as a resistance against penicillin, may be detected in a protocol comprising the steps:
(§3) Table 4 indicates the alteration of the amount of detectable labelled antibiotics in clinically relevant micro-organisms in its resistant form relative to its non-resistant form. The amount is expressed in % change of fluorescence (decrease and increase, respectively) of an antibiotic which carries a fluorescent label.

[2] = test system: 23S rRNA; details: cited from earlier work
[3] = test system: Vancomycin resistant SA (VRSA); assay: Binding of fluorescent labelled antibiotic, resistant vs non-resistant form: VRSA; design: species or system Staphylococcus aureus; details: binding of labelled Vancomycin relative to non-resistant form
Source text: (§4) Another preferred application is the detection of the binding of Vancomycin to surface proteins of Staphylococcus aureus which are anchored to the cell wall peptidoglycan. Vancomycin resistant Staphylococci bind the antibiotic to such an extent that it renders Vancomycin ineffective. Labelled Vancomycin therefore will preferably bind to resistant organisms.
(§5) An in-situ hybridisation protocol may be applied as laid down in patent application EP 06 021 267.7, which is incorporated herein by reference. The incubation with a labelled antibiotic may be performed at temperatures below the Tm of the hybridised probe. In a preferred embodiment the temperature is between about 25 and about 65° C., in a more preferred embodiment the temperature is between about 35° C. and about 59° C. In an even more preferred embodiment, the temperature is at about 52° C. The incubation time is preferably between about 1 and about 30 minutes. […]
as §2, §3

[4] = test system: Vancomycin intermediary SA (VISA); assay: Binding of fluorescent labelled antibiotic, resistant vs non-resistant form: VISA; design: species or system Staphylococcus aureus; details: increased binding of Vancomycin; VISA relative to non-resistant form; fluorescent label
Protocol: as §1, §2, §3

[5] = test system: Vancomycin resistant Enterococci (VRE); details: stated as resistance mechanism; cited from earlier work
[6] = test system: Vancomycin resistant Staph (VRS); assay: Binding of fluorescent labelled antibiotic, resistant vs non-resistant form: VRS; design: species or system Staphylococci (CNS); details: increased binding of Vancomycin; VRS relative to non-resistant form; fluorescent label
Source text: as §4, §5, §2, §3

[7] = test system: Vancomycin resistant Enterococci (VRE); assay: Binding of fluorescent labelled antibiotic, resistant vs non-resistant form: VRE; details: reduction of vancomycin binding; VRE relative to non-resistant form; fluorescent label
Protocol: as §1, §2, §3

[8] = test system: Extended Spectrum β-Lactamase (ESBL) Stenotrophomonas maltophilia; assay: Binding of fluorescent labelled clavulanic acid: ESBL Stenotrophomonas maltophilia; details: increase, ESBL Stenotrophomonas maltophilia relative to non-resistant form
Protocol: as §1, §2, §3

[9] = test system: Extended Spectrum β-Lactamase (ESBL) Enterobacteriaceae; assay: Binding of fluorescent labelled clavulanic acid: ESBL Enterobacteriaceae; details: increase, ESBL Enterobacteriaceae relative to non-resistant form
Protocol: as §1, §2, §3

[10] = test system: Extended Spectrum β-Lactamase (ESBL) BCC; assay: Binding of fluorescent labelled clavulanic acid: ESBL BCC; details: increase, ESBL BCC relative to non-resistant form
Protocol: as §1, §2, §3

[11] = test system: Extended Spectrum β-Lactamase (ESBL) Pseudomonas spp.; assay: Binding of fluorescent labelled clavulanic acid: ESBL Pseudomonas spp.; details: increase, ESBL Pseudomonas spp. relative to non-resistant form
Protocol: as §1, §2, §3

[12] = test system: Extended Spectrum β-Lactamase (ESBL) Acinetobacter; assay: Binding of fluorescent labelled clavulanic acid: ESBL Acinetobacter; details: increase, ESBL Acinetobacter relative to non-resistant form
Protocol: as §1, §2, §3

[13] = test system: Community acquired MRSA (CA-MRSA); assay type: binding, Staphylococcus aureus
Protocol: The incubation with a labelled antibiotic may be performed at temperatures below the Tm of the hybridised probe. In a preferred embodiment the temperature is between about 25 and about 65° C., in a more preferred embodiment the temperature is between about 35° C. and about 59° C. In an even more preferred embodiment, the temperature is at about 52° C. The incubation time is preferably between about 1 and about 30 minutes. In a more preferred embodiment the incubation is made for about 15 minutes. After the incubation the slide may be submerged in 50% ethanol followed by a bath in pure ethanol. Both steps may be run for between about 1 and about 10 minutes. The preferred length of incubation is between about 2 and about 6 minutes. It is more preferred to incubate about 4 minutes. The slides may then be air-dried (e.g. on a hot plate) and the cells may be embedded in a balanced salt mounting medium.

[14] = test system: Border.line oxacillin resistant SA (BORSA); assay: Binding of fluorescent labelled antibiotic, resistant vs non-resistant form: BORSA; design: species or system Staphylococcus aureus; details: reduction of penicillin binding; BORSA relative to non-resistant form; fluorescent label
Protocol: as §1, §2, §3

[15] = test system: Oxacillin resistant SA (ORSA); assay: Binding of fluorescent labelled antibiotic, resistant vs non-resistant form: ORSA; design: species or system Staphylococcus aureus; details: reduction of penicillin binding; ORSA relative to non-resistant form; fluorescent label
Protocol: as §1, §2, §3

[16] = test system: Methicillin Resistant Staphylococcus aureus (MRSA); assay: Binding of fluorescent labelled antibiotic, resistant vs non-resistant form: MRSA; details: reduction of Penicillin binding; MRSA relative to non-resistant form; antibiotic carries a fluorescent label
Protocol: as §1, §2, §3

For `[H]/N=C(/N)N[C@H]1[C@H](O)[C@@H](O)[C@H](O[C@@H]2O[C@@H](C)[C@](O)(C=O)[C@H]2O[C@@H]2O[C@@H](CO)[C@H](O)[C@@H](O)[C@@H]2NC)[C@@H](N/C(N)=N\[H])[C@@H]1O` [Streptomycin, reference compound], the “% Change in Fluorescenc” value [1] is listed as greater than 80% and the Phenotype ([2]; 23S rRNA position 2661 "G to C", E. coli, when expressed with Smr, hyperaccurate S12 mutation) is listed as “streptomycin dependent”.
In the case of `CN[C@H](CC(C)C)C(=O)N[C@H]1C(=O)N[C@@H](CC(N)=O)C(=O)N[C@H]2C(=O)N[C@H]3C(=O)N[C@H](C(=O)N[C@H](C(=O)O)c4cc(O)cc(O)c4-c4cc3ccc4O)[C@H](O)c3ccc(c(Cl)c3)Oc3cc2cc(c3O[C@@H]2O[C@H](CO)[C@@H](O)[C@H](O)[C@H]2O[C@H]2C[C@](C)(N)[C@H](O)[C@H](C)O2)Oc2ccc(cc2Cl)[C@H]1O` [Vancomycin], the “Effect of resistance on fluorescence” value [3] is listed as “Increased”, the “% Change in Fluorescenc” value [4] is listed as 20-50% and the “Reduced affinity to Van” value [5] is listed as “Reduced affinity to Van by 3 orders of magnitude”. For the same molecule, the “% Change in Fluorescenc” value [6] was greater than 50% and the “% Change in Fluorescenc” value [7] was greater than 80%.
In the case of `O=C(O)[C@H]1/C(=C/CO)O[C@@H]2CC(=O)N21` [clavulanic acid], the “% Change in Fluorescenc” value [8] is reported as greater than 80%, the “% Change in Fluorescenc” value [9] is reported as greater than 80% and the “% Change in Fluorescenc” value [10] is reported as greater than 80%. For the same molecule, the “% Change in Fluorescenc” value [11] was greater than 80% and the “% Change in Fluorescenc” value [12] was greater than 80%.
In the case of `CSC[S@+]([O-])C[C@H](CO)NC(=O)/C=C/c1c(C)[nH]c(=O)[nH]c1=O` [sparsomycin], the “Phenotype (level of resistance)” value ([2]; 23S rRNA position 2452 C to U, Halobacterium halobium, Tan 1996) is listed as “Low level sparsomycin”.
For `C=C(NC(=O)C(=C)NC(=O)c1csc(C2=N[C@@H]3c4csc(n4)[C@H]4NC(=O)c5csc(n5)[C@H]([C@](C)(O)[C@@H](C)O)NC(=O)[C@H]5CSC(=N5)/C(=C/C)NC(=O)[C@H]([C@@H](C)O)NC(=O)c5csc(n5)[C@]3(CC2)NC(=O)[C@H](C)NC(=O)C(=C)NC(=O)[C@H](C)NC(=O)[C@H]([C@@H](C)CC)N[C@@H]2C=Cc3c([C@H](C)O)cc(nc3[C@H]2O)C(=O)O[C@@H]4C)n1)C(N)=O` [thiostrepton], the “Phenotype: binding in RNA fragments” value ([2]; 23S rRNA position 1056 G to C, E. coli) is listed as “weakened in RNA”, the “Phenotype: drug binding affinity” value ([2]; 23S rRNA position 1067 A to C, E. coli) is listed as “affinity is reduced similarly” and the “Phenotype: drug binding affinity” value ([2]; 23S rRNA position 1067 A to G, E. coli) is listed as “affinity is reduced similarly”. The “Phenotype: drug binding affinity” value ([2]; 23S rRNA position 1067 A to U, E. coli) was “affinity is reduced similarly” and the “Phenotype: thiostrepton resistance in poly (U) translation” value ([2]; 23S rRNA position 1067 A to U, E. coli, mutant constituted 30% of the total 23S rRNA pool in the ribosomes) was “ribosomes; exhibited 30%”.
In the case of `COc1cc(Cc2cnc(N)nc2N)cc(OC)c1OC` [trimethoprim, Trimethoprim], the “Effect of resistance on fluorescence” value ([13]; CA-MRSA, binding capacity for the labelled antibiotic) is reported as “Maintaims binding”.
With Penicillin the “% Change in Fluorescenc” value [14] was “> to ≈80%”, the “% Change in Fluorescenc” value [15] was “> to ≈80%” and the “% Change in Fluorescenc” value [16] was “> to ≈80%”. The “% Change in Fluorescenc” value ([13]; reduction of penicillin binding, CA-MRSA relative to non-resistant form, antibiotic carries a fluorescent label) was “> to ≈80%”.
In the case of spiramycin, the Phenotype ([2]; 23S rRNA position 2611 "C to G", Chlamydomonas reinhardtii, Gauthier et al. 1988) is given as “spiramycin resistance” and the Phenotype ([2]; 23S rRNA position 2611 "C to G", Yeast mitochondria, Sor and Fukahara 1984) is given as “spiramycin resistance”.
